In patent publication US7807841B2, “Spiro-containing compounds and compositions as modulators of steroid hormone nuclear receptors” (IRM LLC, priority 2005, dated 2010):

Assays:
[1] = molecular target: T1, Mineralocorticoid Receptor (MR) (Homo sapiens, UniProt P08235); assay: Functional assay of mineralocorticoid receptor antagonism (Gal4-MR mammalian two hybrid luciferase reporter, 293T cells); format: cell-based; details: antagonism of aldosterone (0.4 nM)-induced MR activity
T1 construct: expressed in transfected cells; host or cells: 293T cells (ATCC)
T1 sequence (P08235 672-984): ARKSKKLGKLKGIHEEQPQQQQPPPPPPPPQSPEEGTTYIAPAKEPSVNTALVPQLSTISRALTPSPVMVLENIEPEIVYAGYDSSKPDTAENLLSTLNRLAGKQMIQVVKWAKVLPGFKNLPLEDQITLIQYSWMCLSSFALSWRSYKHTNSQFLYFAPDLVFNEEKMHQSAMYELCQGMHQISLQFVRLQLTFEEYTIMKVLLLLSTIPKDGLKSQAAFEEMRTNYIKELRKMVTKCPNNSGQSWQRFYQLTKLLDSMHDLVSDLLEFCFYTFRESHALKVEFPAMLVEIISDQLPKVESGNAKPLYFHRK
Procedure: The MR antagonist activity of the compounds is determined in a mammalian two hybrid reporter system. The N-terminus of MR (MR-NT, sequence coding amino acid 1-597) is fused to the activation domain of the VP16 gene. The ligand binding domain of MR (MR-LBD, sequence encoding amino acid 672-984) is fused to the DNA binding domain of the yeast Gal4 gene. The MR gene is cloned from a human kidney cDNA library with PCR.
The assay is performed in 384 well plates. Briefly, 293T cells (ATCC) are transfected with expression vectors for Gal-4-MR-LBD and VP16-MR NT, and a luciferase reporter vector containing Gal4 binding sequence (pG5-Luc). Cells are plated in 384 well plates immediately after transfection (approximately 3×10^4 cells/well in 50 μl medium). The medium is supplemented with 3% charcoal-dextran treated fetal bovine serum (Hyclone). Twenty four hours after transfection, compounds prepared in DMSO are transferred to the cells. The cells are then stimulated with 0.4 nM final concentration of aldosterone (Acros) and incubated at 37° C. for another 24 hours before the luciferase activity is assayed with 20 μl of Bright-Glo (Promega) using a luminometer (CLIPR). The expression of luciferase is used as an indicator of aldosterone-induced MR trans-activation. Each compound is tested in duplicates with 12-concentration titration. IC50 values (defined as the concentration of test compound required to antagonize 50% of aldosterone-induced MR activity) are determined from the dose-response curve.

[2] = molecular target: T2, Glucocorticoid Receptor (GR) (Homo sapiens, UniProt P04150); assay: Functional assay of glucocorticoid receptor antagonism (Gal4-GR-LBD luciferase reporter, COS-7 cells); format: cell-based; details: antagonism of dexamethasone (10 nM)-induced GR activity
T2 construct: expressed in transfected cells; host or cells: COS-7 cells (ATCC)
T2 sequence (P04150 541-778 isoform P04150-3): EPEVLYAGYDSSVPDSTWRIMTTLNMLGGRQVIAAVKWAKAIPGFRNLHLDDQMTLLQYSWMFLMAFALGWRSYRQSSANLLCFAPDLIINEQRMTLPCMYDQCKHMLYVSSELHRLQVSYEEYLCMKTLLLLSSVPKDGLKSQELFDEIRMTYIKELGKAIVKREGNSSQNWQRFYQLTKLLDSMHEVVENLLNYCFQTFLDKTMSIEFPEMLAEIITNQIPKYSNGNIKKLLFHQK
Procedure: The GR antagonist activity of the compounds is determined in a mammalian two hybrid reporter system. The ligand binding domain of GR (GR-LBD, sequence encoding amino acid 541-778) is fused to the DNA binding domain of the yeast Gal4 gene. The GR gene is cloned from a human lung cDNA library with PCR.
The assay is performed in 384 well plates: COS-7 cells (ATCC) are transfected with expression vectors for Gal-4-GR-LBD and a luciferase reporter vector containing Gal4 binding sequence (pG5-Luc). Cells are plated in 384 well plates immediately after transfection (approximately 8000 cells/well in 50 μl medium). The medium is supplemented with 3% charcoal-dextran treated fetal bovine serum (Hyclone). Twenty four hours after transfection, compounds prepared in DMSO are transferred to the cells. The cells are then stimulated with 10 nM final concentration of dexamethasone (Sigma) and incubated at 37° C. for another 24 hours before the luciferase activity is assayed with 20 μl of Bright-Glo (Promega) using a luminometer (CLIPR). The expression of luciferase is used as an indicator of dexamethasone-induced GR trans-activation. Each compound is tested in duplicates with a 12-concentration titration. IC50 values (defined as the concentration of test compound required to antagonize 50% of dexamethasone-induced GR activity) are determined from the dose-response curve.

| SMILES | IC50 [1] [nM] | IC50 [2] [nM] |
| --- | --- | --- |
| CC12CCCC(=O)N1CC1(O2)c2ccccc2CCc2ccccc21 (centres unmarked) [FRS-14] | 100 to 1000 | > 10000 |
| O=C1CCC2(C3CC3)OC3(CN12)c1ccccc1C=Cc1ccccc13 (centres unmarked) [FRS-10] | < 100 | 1000 to 10000 |
| CC12CCC(=O)N1CC1(O2)c2ccccc2CCc2ccccc21 (centres unmarked) [FRS-13] | < 100 | > 10000 |
| O=C1CCCC2(C(F)(F)F)OC3(CN12)c1ccccc1C=Cc1ccccc13 (centres unmarked) [FRS-11] | < 100 | 1000 to 10000 |
| CCCC12CCC(=O)N1CC1(O2)c2ccccc2C=Cc2ccccc21 (centres unmarked) [FRS-9] | < 100 | 1000 to 10000 |
| O=C1CCC2(c3ccccc3)OC3(CN12)c1ccccc1C=Cc1ccccc13 (centres unmarked) [FRS-2] | 100 to 1000 | > 10000 |
| CC12CCC(=O)N1CC1(O2)c2ccccc2C=Cc2ccccc21 (centres unmarked) [FRS-1] | < 100 | > 10000 |
| O=C1CCC2(c3ccc(F)cc3)OC3(CN12)c1ccccc1C=Cc1ccccc13 (centres unmarked) [FRS-3] | 100 to 1000 | > 10000 |
| CC12CCCCC(=O)N1CC1(O2)c2ccccc2C=Cc2ccccc21 (centres unmarked) [FRS-6] | 100 to 1000 | > 10000 |
| CC12CCC(=O)N1CC1(O2)c2ccccc2CCc2ccccc21 (single isomer, unassigned) [FRS-13 (Chiral Synthesis)] | < 100 | > 10000 |
| O=C1CCC2(c3cccs3)OC3(CN12)c1ccccc1C=Cc1ccccc13 (centres unmarked) [FRS-8] | < 100 | 1000 to 10000 |
| COc1ccc(C23CCC(=O)N2CC2(O3)c3ccccc3C=Cc3ccccc32)cc1 (centres unmarked) [FRS-5] | 100 to 1000 | > 10000 |
| CC12CCC(=O)N1CC1(O2)c2ccccc2C=Cc2ccccc21 (single isomer, unassigned) [FRS-1 (Chiral Synthesis)] | < 100 | 1000 to 10000 |
| CC12CCCC(=O)N1CC1(O2)c2ccccc2C=Cc2ccccc21 (centres unmarked) [FRS-4] | 100 to 1000 | > 10000 |

Further lines, results first:

| IC50 [1] [nM] | IC50 [2] [nM] | SMILES |
| --- | --- | --- |
| 100 to 1000 | 1000 to 10000 | CC(=O)N1CC2(OC1(C)C)c1ccccc1C=Cc1ccccc12 [SOXS-3] |
| 1000 to 10000 | > 10000 | CC1(C)OC2(CN1C(=O)Nc1ccc(F)cc1F)c1ccccc1C=Cc1ccccc12 [SOXS-1] |
| < 100 | > 10000 | CC1(C)OC2(CN1S(C)(=O)=O)c1ccccc1C=Cc1ccccc12 [SOXS-4] |
| 100 to 1000 | > 10000 | CC(=O)N1CC2(OC13CCCCC3)c1ccccc1C=Cc1ccccc12 [SOXS-6] |
| 100 to 1000 | > 10000 | Oc1ccc(C2=NCC3(O2)c2ccccc2C=Cc2ccccc23)cc1 [OXS-1] |
